# Like-named read-outs stand apart in the source and are kept apart here.
# Columns and labels:
# MDRPA = experiment: MIC determination, microdilution broth method;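 note: broth microdilution per NCCLS recommendations, testing Pithecellobium clypearia water or ethanol extracts against multidrug-resistant Pseudomonas aeruginosa, with MIC50 and MIC90 derived statistically from individual MICs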
# Procedure: Determination methods of a Minimal Inhibitory Concentration (MIC) and a Minimum Bactericidal Concentration (MBC) of a test product: the MIC and the MBC of the Pithecellobium clypearia Benth water or ethanol extract to the MDRAB are determined by a microdilution broth method. And it is operated by referring to the microdilution broth method recommended by National Committee for Clinical Laboratory Standards (NCCLS).
# By determining the MIC and the MBC of the drug and making statistics of the data to obtain MIC50, MIC90, MBC50 and MBC90, the effect of the MDRA resistance of the drug is evaluated.
# Test method: the MDRPA (serial No.: P1-P20) strains are tested and are evaluated with reference to the method in the first embodiment.
# ATCC27853 = experiment: MIC determination, control strain; assay type: cell-based
# Procedure: Determination methods of a Minimal Inhibitory Concentration (MIC) and a Minimum Bactericidal Concentration (MBC) of a test product: the MIC and the MBC of the Pithecellobium clypearia Benth water or ethanol extract to the MDRAB are determined by a microdilution broth method.
# [1] = 20 MDRPAs, EA = 60% ethanol extract
# [2] = 20 MDRPAs, EA = 95% ethanol extract
# [3] = MDRPAs P1-P20, single use, EA=P. clypearia 10% ethanol extract
# [4] = MDRPAs P1-P20, single use, EA=P. clypearia water extract
# [5] = single use, 20 MDRPAs, section of the 10% ethanol extract
# [6] = single use, 20 MDRPAs, section of the 60% ethanol extract
# [7] = single use, 20 MDRPAs, section of the 95% ethanol extract
compound,measurement,setting,value
"CC(C)(O/N=C(\C(=O)N[C@@H]1C(=O)N2C(C(=O)[O-])=C(C[n+]3ccccc3)CS[C@H]12)c1csc(N)n1)C(=O)O [CAZ, Ceftazidime]",MIC50,MDRPA; [1],32 µg/mL
same,MIC90,MDRPA; [1],256 µg/mL
same,MIC Range,MDRPA; [1],2 to 512 µg/mL
same,MIC50,MDRPA; [2],32 µg/mL
same,MIC90,MDRPA; [2],256 µg/mL
same,MIC Range,MDRPA; [2],2 to 512 µg/mL
same,MIC50,MDRPA; [3],32 µg/mL
same,MIC90,MDRPA; [3],256 µg/mL
same,MIC Range,MDRPA; [3],2 to 512 µg/mL
same,MIC50,MDRPA; [4],32 µg/mL
same,MIC90,MDRPA; [4],256 µg/mL
same,MIC Range,MDRPA; [4],2 to 512 µg/mL
same,MIC50,MDRPA; Pseudomonas aeruginosa,32 µg/mL
same,MIC90,MDRPA; Pseudomonas aeruginosa,256 µg/mL
same,MIC,"MDRPA; Pseudomonas aeruginosa, read-out: MIC (single use), strain P1, EA=P. clypearia 10% ethanol extract",32 µg/mL
same,MIC,"MDRPA; Pseudomonas aeruginosa, read-out: MIC (single use), strain P1, EA=P. clypearia water extract",32 µg/mL
same,MIC,"MDRPA; Pseudomonas aeruginosa, read-out: MIC (single use), strain P2, EA=P. clypearia 10% ethanol extract",64 µg/mL
same,MIC,"MDRPA; Pseudomonas aeruginosa, read-out: MIC (single use), strain P2, EA=P. clypearia water extract",64 µg/mL
same,MIC,"MDRPA; Pseudomonas aeruginosa, read-out: MIC (single use), strain P3, EA=P. clypearia 10% ethanol extract",4 µg/mL
same,MIC,"MDRPA; Pseudomonas aeruginosa, read-out: MIC (single use), strain P3, EA=P. clypearia water extract",4 µg/mL
same,MIC,"MDRPA; Pseudomonas aeruginosa, read-out: MIC (single use), strain P4, EA=P. clypearia 10% ethanol extract",256 µg/mL
same,MIC,"MDRPA; Pseudomonas aeruginosa, read-out: MIC (single use), strain P4, EA=P. clypearia water extract",256 µg/mL
same,MIC,"MDRPA; Pseudomonas aeruginosa, read-out: MIC (single use), strain P5, EA=P. clypearia 10% ethanol extract",64 µg/mL
same,MIC,"MDRPA; Pseudomonas aeruginosa, read-out: MIC (single use), strain P5, EA=P. clypearia water extract",64 µg/mL
same,MIC,"MDRPA; Pseudomonas aeruginosa, read-out: MIC (single use), strain P6, EA=P. clypearia 10% ethanol extract",512 µg/mL
same,MIC,"MDRPA; Pseudomonas aeruginosa, read-out: MIC (single use), strain P6, EA=P. clypearia water extract",512 µg/mL
same,MIC,"MDRPA; Pseudomonas aeruginosa, read-out: MIC (single use), strain P7, EA=P. clypearia 10% ethanol extract",64 µg/mL
same,MIC,"MDRPA; Pseudomonas aeruginosa, read-out: MIC (single use), strain P7, EA=P. clypearia water extract",64 µg/mL
same,MIC,"MDRPA; Pseudomonas aeruginosa, read-out: MIC (single use), strain P8, EA=P. clypearia 10% ethanol extract",256 µg/mL
same,MIC,"MDRPA; Pseudomonas aeruginosa, read-out: MIC (single use), strain P8, EA=P. clypearia water extract",256 µg/mL
same,MIC,"MDRPA; Pseudomonas aeruginosa, read-out: MIC (single use), strain P9, EA=P. clypearia 10% ethanol extract",8 µg/mL
same,MIC,"MDRPA; Pseudomonas aeruginosa, read-out: MIC (single use), strain P9, EA=P. clypearia water extract",8 µg/mL
same,MIC,"MDRPA; Pseudomonas aeruginosa, read-out: MIC (single use), strain P10, EA=P. clypearia 10% ethanol extract",4 µg/mL
same,MIC,"MDRPA; Pseudomonas aeruginosa, read-out: MIC (single use), strain P10, EA=P. clypearia water extract",4 µg/mL
same,MIC,"MDRPA; Pseudomonas aeruginosa, read-out: MIC (single use), strain P11, EA=P. clypearia 10% ethanol extract",2 µg/mL
same,MIC,"MDRPA; Pseudomonas aeruginosa, read-out: MIC (single use), strain P11, EA=P. clypearia water extract",2 µg/mL
same,MIC,"MDRPA; Pseudomonas aeruginosa, read-out: MIC (single use), strain P12, EA=P. clypearia 10% ethanol extract",64 µg/mL
same,MIC,"MDRPA; Pseudomonas aeruginosa, read-out: MIC (single use), strain P12, EA=P. clypearia water extract",64 µg/mL
same,MIC,"MDRPA; Pseudomonas aeruginosa, read-out: MIC (single use), strain P13, EA=P. clypearia 10% ethanol extract",16 µg/mL
same,MIC,"MDRPA; Pseudomonas aeruginosa, read-out: MIC (single use), strain P13, EA=P. clypearia water extract",16 µg/mL
same,MIC,"MDRPA; Pseudomonas aeruginosa, read-out: MIC (single use), strain P14, EA=P. clypearia 10% ethanol extract",16 µg/mL
same,MIC,"MDRPA; Pseudomonas aeruginosa, read-out: MIC (single use), strain P14, EA=P. clypearia water extract",16 µg/mL
same,MIC,"MDRPA; Pseudomonas aeruginosa, read-out: MIC (single use), strain P15, EA=P. clypearia 10% ethanol extract",256 µg/mL
same,MIC,"MDRPA; Pseudomonas aeruginosa, read-out: MIC (single use), strain P15, EA=P. clypearia water extract",256 µg/mL
same,MIC,"MDRPA; Pseudomonas aeruginosa, read-out: MIC (single use), strain P16, EA=P. clypearia 10% ethanol extract",32 µg/mL
same,MIC,"MDRPA; Pseudomonas aeruginosa, read-out: MIC (single use), strain P16, EA=P. clypearia water extract",32 µg/mL
same,MIC,"MDRPA; Pseudomonas aeruginosa, read-out: MIC (single use), strain P17, EA=P. clypearia 10% ethanol extract",32 µg/mL
same,MIC,"MDRPA; Pseudomonas aeruginosa, read-out: MIC (single use), strain P17, EA=P. clypearia water extract",32 µg/mL
same,MIC,"MDRPA; Pseudomonas aeruginosa, read-out: MIC (single use), strain P18, EA=P. clypearia 10% ethanol extract",64 µg/mL
same,MIC,"MDRPA; Pseudomonas aeruginosa, read-out: MIC (single use), strain P18, EA=P. clypearia water extract",64 µg/mL
same,MIC,"MDRPA; Pseudomonas aeruginosa, read-out: MIC (single use), strain P19, EA=P. clypearia 10% ethanol extract",4 µg/mL
same,MIC,"MDRPA; Pseudomonas aeruginosa, read-out: MIC (single use), strain P19, EA=P. clypearia water extract",4 µg/mL
same,MIC,"MDRPA; Pseudomonas aeruginosa, read-out: MIC (single use), strain P20, EA=P. clypearia 10% ethanol extract",256 µg/mL
same,MIC,"MDRPA; Pseudomonas aeruginosa, read-out: MIC (single use), strain P20, EA=P. clypearia water extract",256 µg/mL
same,MIC50,MDRPA; [5],32 µg/mL
same,MIC90,MDRPA; [5],256 µg/mL
same,MIC50,MDRPA; [6],32 µg/mL
same,MIC90,MDRPA; [6],256 µg/mL
same,MIC50,MDRPA; [7],32 µg/mL
same,MIC90,MDRPA; [7],256 µg/mL
same,MIC,"ATCC27853; EA=10% ethanol extract, read-out: MIC",4 µg/mL
same,MIC,"ATCC27853; EA=60% ethanol extract, read-out: MIC",4 µg/mL
same,MIC,"ATCC27853; EA=95% ethanol extract, read-out: MIC",4 µg/mL
same,MIC,"ATCC27853; EA=P. clypearia 10% ethanol extract, read-out: MIC (single use)",4 µg/mL
same,MIC,"ATCC27853; EA=P. clypearia water extract, read-out: MIC (single use)",4 µg/mL
same,MIC,"ATCC27853; EA=water extract, read-out: MIC",4 µg/mL
same,MIC,"ATCC27853; single use, EA = 60% ethanol extract, read-out: MIC",4 µg/mL
same,MIC,"ATCC27853; single use, EA = 95% ethanol extract, read-out: MIC",4 µg/mL

# Source: patent US11793849B2, “Method of Chinese herbal medicine extract used for treating multiple diseases caused by drug resistant bacteria infection” (priority 2016, dated 2023)
